As usually defined, the melting point is the temperature of the solid-liquid transition.

Experimental findings from patent US20230085307A1, “PYRIDAZINONE COMPOUND AND HERBICIDE” (NISSAN CHEMICAL CORPORATION, priority 2019, published 2023) are described below.

Each structure is given as a SMILES string.

For `COc1ccccc1-c1sc2ccc(N)cc2c1-c1c(OC)c(C)nn(C)c1=O` [Compound No. 2-174, 4-(5-amino-2-(2-methoxyphenyl)benzo[b]thiophen-3-yl)-5-methoxy-2,6-dimethylpyridazin-3(2H)-one], the melting point lay within 219 to 221 °C.
